Test results as given in patent US8703805B2 (Exelixis Patent Company LLC, priority 2005, dated 2014).

Tested on: LXRα and/or LXRβ
Assay: LXR/LXRE co-transfection assay (luciferase reporter, CV-1 cells)
Format: cell-based, human
Conditions: IC50 or EC50 for LXR (LXRα and/or LXRβ, not distinguished), tested as described in Example 109, CV-1 cells
Method in brief: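 Transient co-transfection of CV-1 cells with full-length human LXRα or LXRβ plus RXRα expression plasmids and an LXREx1-Tk-luciferase reporter; compounds (10 μM screen, ≤1% DMSO) incubated 20 h at 37 °C. Luminescence read after lysis; EC50/IC50 from 8-point half-log curves, efficacy relative to a high control or DMSO.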

SMILES	EC50 [nM]
C/C(=N\O)c1cc(-c2ccc(-c3cccc(S(C)(=O)=O)c3)s2)n(-c2ccccc2Cl)n1 [Example 1176, (1E)-1-[1-(2-chlorophenyl)-5-{5-[3-(methylsulfonyl)phenyl]-2-thienyl}-1H-pyrazol-3-yl]ethanone oxime]	< 1000
CS(=O)(=O)c1cccc(-c2ccc(-c3cc(C(F)(F)F)nn3-c3ccccc3Cl)cc2C(=O)N2CCOCC2)c1 [Example 1142, 4-({4-[1-(2-chlorophenyl)-3-(trifluoromethyl)-1H-pyrazol-5-yl]-3′-(methylsulfonyl)biphenyl-2-yl}carbonyl)morpholine]	1000 to 10000
COC(=O)c1cc(-c2ccc(-c3cccc(S(C)(=O)=O)c3)s2)n(-c2c(Cl)cccc2Cl)n1 [Example 1238, methyl 1-(2,6-dichlorophenyl)-5-{5-[3-(methylsulfonyl)phenyl]-2-thienyl}-1H-pyrazole-3-carboxylate]	< 1000
CN(C)CCN(C)C(=O)c1cc(-c2ccc(-c3cccc(S(C)(=O)=O)c3)s2)n(-c2ccccc2Cl)n1 [Example 1144, 1-(2-chlorophenyl)-N-[2-(dimethylamino)ethyl]-N-methyl-5-{5-[3-(methylsulfonyl)phenyl]-2-thienyl}-1H-pyrazole-3-carboxamide]	1000 to 10000
CC(C)(O)c1cc(-c2ccc(-c3cccc(S(C)(=O)=O)c3)s2)n(-c2c(Cl)cccc2Cl)n1 [Example 1239, 2-[1-(2,6-dichlorophenyl)-5-{5-[3-(methylsulfonyl)phenyl]-2-thienyl}-1H-pyrazol-3-yl]propan-2-ol]	< 1000
CC(C)(O)c1cc(-c2ccc(-c3cccc(OC(F)(F)F)c3)s2)n(-c2ccccc2Cl)n1 [Example 1274, 2-[1-(2-chlorophenyl)-5-(5-{3-[(trifluoromethyl)oxy]phenyl}-2-thienyl)-1H-pyrazol-3-yl]propan-2-ol]	1000 to 10000
CC(C)(C(=O)O)c1cccc(-c2ccc(-c3cc(C(F)(F)F)nn3Cc3ccc(F)cc3F)s2)c1 [Example 1205, 2-[3-(5-{1-[(2,4-difluorophenyl)methyl]-3-(trifluoromethyl)-1H-pyrazol-5-yl}-2-thienyl)phenyl]-2-methylpropanoic acid]	< 1000
Cc1c(Cl)cccc1-n1nc(C(C)(C)O)cc1-c1ccc(-c2cccc(S(C)(=O)=O)c2)s1 [Example 1340, 2-[1-(3-chloro-2-methylphenyl)-5-{5-[3-(methylsulfonyl)phenyl]-2-thienyl}-1H-pyrazol-3-yl]propan-2-ol]	< 1000
CC(C)(O)c1nn(-c2cnccc2C(F)(F)F)c(-c2ccc(-c3cccc(S(C)(=O)=O)c3)s2)c1Br [Example 1369, 2-(4-bromo-5-{5-[3-(methylsulfonyl)phenyl]-2-thienyl}-1-[4-(trifluoromethyl)pyridin-3-yl]-1H-pyrazol-3-yl)propan-2-ol]	< 1000
CC(C)(O)c1cc(-c2ccc(-c3ccc(S(C)(=O)=O)cc3)s2)n(-c2ccccc2Cl)n1 [Example 804, 2-[1-(2-chlorophenyl)-5-{5-[4-(methylsulfonyl)phenyl]-2-thienyl}-1H-pyrazol-3-yl]propan-2-ol]	1000 to 10000
CS(=O)(=O)c1cc(-c2ccc(-c3cc(C(F)(F)F)nn3-c3ncccc3C(F)(F)F)s2)ccc1CO [Example 1149, [2-(methylsulfonyl)-4-(5-{3-(trifluoromethyl)-1-[3-(trifluoromethyl)pyridin-2-yl]-1H-pyrazol-5-yl}-2-thienyl)phenyl]methanol]	< 1000
CC(C)(O)c1cc(-c2ccc(-c3cccc(S(C)(=O)=O)c3)s2)n(-c2c(F)cccc2Cl)n1 [Example 1344, 2-[1-(2-chloro-6-fluorophenyl)-5-{5-[3-(methylsulfonyl)phenyl]-2-thienyl}-1H-pyrazol-3-yl]propan-2-ol]	< 1000
Cc1c(C(C)(C)O)nn(-c2ccccc2Cl)c1-c1ccc(-c2cccc(S(C)(=O)=O)c2)s1 [Example 1301, 2-[1-(2-chlorophenyl)-4-methyl-5-{5-[3-(methylsulfonyl)phenyl]-2-thienyl}-1H-pyrazol-3-yl]propan-2-ol]	< 1000
COC(=O)c1cc(-c2ccccc2Cl)n(-c2ccc(-c3cccc(S(C)(=O)=O)c3)nc2)n1 [Example 1244, methyl 5-(2-chlorophenyl)-1-{6-[3-(methylsulfonyl)phenyl]pyridin-3-yl}-1H-pyrazole-3-carboxylate]	1000 to 10000
COC(=O)c1cc(-c2ccccc2Cl)n(-c2ccc(-c3cccc(S(C)(=O)=O)c3)cn2)n1 [Example 1230, methyl 5-(2-chlorophenyl)-1-{5-[3-(methylsulfonyl)phenyl]pyridin-2-yl}-1H-pyrazole-3-carboxylate]	1000 to 10000
COC(=O)c1cccc(-n2nc(C(=O)OC)cc2-c2ccc(-c3cccc(S(C)(=O)=O)c3)s2)c1 [Example 1220, methyl 1-{3-[(methyloxy)carbonyl]phenyl}-5-{5-[3-(methylsulfonyl)phenyl]-2-thienyl}-1H-pyrazole-3-carboxylate]	< 1000

SMILES	EC50 [nM]
CN(C)C1CCN(C(=O)c2cc(-c3ccc(-c4cccc(S(C)(=O)=O)c4)s3)n(-c3ccccc3Cl)n2)CC1 [Example 591, 1-{[1-(2-chlorophenyl)-5-{5-[3-(methylsulfonyl)phenyl]-2-thienyl}-1H-pyrazol-3-yl]carbonyl}-N,N-dimethylpiperidin-4-amine]	1000 to 10000
CC(C)NC(=O)c1cccc(-c2ccc(-c3cc(C(C)(C)O)nn3-c3ccccc3Cl)cc2)c1 [Example 1292, 4′-[1-(2-chlorophenyl)-3-(1-hydroxy-1-methylethyl)-1H-pyrazol-5-yl]-N-(1-methylethyl)biphenyl-3-carboxamide]	1000 to 10000
CC(C)(O)c1nn(-c2ccccc2Cl)c(-c2ccc(-c3cccc(S(C)(=O)=O)c3)s2)c1F [Example 1319, 2-[1-(2-chlorophenyl)-4-fluoro-5-{5-[3-(methylsulfonyl)phenyl]-2-thienyl}-1H-pyrazol-3-yl]propan-2-ol]	< 1000
CC(C)(O)c1cc(-c2cccc(F)c2F)n(-c2ccc(-c3cccc(S(C)(=O)=O)c3)cc2Cl)n1 [Example 131, 2-(1-(3-chloro-3′-(methylsulfonyl)biphenyl-4-yl)-5-(2,3-difluorophenyl)-1H-pyrazol-3-yl)propan-2-ol]	< 1000
Cc1cc(-c2cccc(S(C)(=O)=O)c2)ccc1-n1nc(C(C)(C)O)c(Cl)c1-c1ccccc1Cl [Example 1422, 2-(4-chloro-5-(2-chlorophenyol)-1-(3-methyl-3′-(methylsulfonyl)biphenyl-4-yl)-1H-pyrazol-3-yl)propan-2-ol]	< 1000
COC(=O)c1cccc(-c2ccc(-c3cc(C(F)(F)F)nn3-c3ccccc3Cl)cc2)c1 [Example 1208, methyl 4′-[1-(2-chlorophenyl)-3-(trifluoromethyl)-1H-pyrazol-5-yl]biphenyl-3-carboxylate]	1000 to 10000
Cn1c(-c2cccc(S(C)(=O)=O)c2)ccc1-c1cc(C(C)(C)O)nn1-c1c(Cl)cccc1Cl [Example 1393, 2-(1-(2,6-dichlorophenyl)-5-(1-methyl-5-(3-(methylsulfonyl)phenyl)-1H-pyrrol-2-yl)-1H-pyrazole-3-yl)propan-2-ol]	1000 to 10000
CC(C)(O)c1nn(-c2c(Cl)cccc2Cl)c(-c2ccc(-c3cccc(S(C)(=O)=O)c3)cc2Cl)c1Cl [Example 144, 2-(4-chloro-5-(3-chloro-3′-(methylsulfonyl)biphenyl-4-yl)-1-(2,6-dichlorophenyl)-1H-pyrazol-3-yl)propan-2-ol]	< 1000
CS(=O)(=O)c1cccc(-c2ccc(-c3cc(Cc4nnn[nH]4)nn3-c3ccccc3Cl)s2)c1 [Example 1136, 5-{[1-(2-chlorophenyl)-5-{5-[3-(methylsulfonyl)phenyl]-2-thienyl}-1H-pyrazol-3-yl]methyl}-1H-tetrazole]	1000 to 10000
CC(C)(O)c1nn(-c2cccc(F)c2Cl)c(-c2ccc(-c3cccc(S(C)(=O)=O)c3)s2)c1Cl [Example 1371, 2-[4-chloro-1-(2-chloro-3-fluorophenyl)-5-{5-[3-(methylsulfonyl)phenyl]-2-thienyl}-1H-pyrazol-3-yl]propan-2-ol]	< 1000
CCCc1ccccc1-n1nc(C(C)(C)O)cc1-c1ccc(-c2cccc(S(C)(=O)=O)c2)s1 [Example 1330, 2-[5-{5-[3-(methylsulfonyl)phenyl]-2-thienyl}-1-(2-propylphenyl)-1H-pyrazol-3-yl]propan-2-ol]	< 1000
CC(C)(O)c1cc(-c2ccc(-c3cccc(S(C)(=O)=O)c3)s2)n(-c2ccc(F)cc2F)n1 [Example 1265, 2-[1-(2,4-difluorophenyl)-5-{5-[3-(methylsulfonyl)phenyl]-2-thienyl}-1H-pyrazol-3-yl]propan-2-ol]	< 1000
CC(C)(O)c1cccc(-c2ccc(-c3cc(C(=O)NCC(F)(F)F)nn3-c3ccccc3Cl)s2)c1 [Example 1276, 1-(2-chlorophenyl)-5-{5-[3-(1-hydroxy-1-methylethyl)phenyl]-2-thienyl}-N-(2,2,2-trifluoroethyl)-1H-pyrazole-3-carboxamide]	1000 to 10000
CC(C)(NC=O)c1cc(-c2ccc(-c3cccc(S(C)(=O)=O)c3)s2)n(-c2ccccc2Cl)n1 [Example 1203, N-{1-[1-(2-chlorophenyl)-5-{5-[3-(methylsulfonyl)phenyl]-2-thienyl}-1H-pyrazol-3-yl]-1-methylethyl}formamide]	1000 to 10000
CC(C)(O)c1cc(-c2ccc(-c3cccc(S(C)(=O)=O)c3)s2)n(-c2cccnc2)n1 [Example 1346, 2-(5-{5-[3-(methylsulfonyl)phenyl]-2-thienyl}-1-pyridin-3-yl-1H-pyrazol-3-yl)propan-2-ol]	< 1000
Cc1cc(-c2cccc(S(C)(=O)=O)c2)cc(C)c1-n1nc(C(C)(C)O)cc1-c1ccccc1Cl [Example 146, 2-(5-(2-chlorophenyl)-1-(3,5-dimethyl-3′-(methylsulfonyl)biphenyl-4-yl)-1H-pyrazol-3-yl)propan-2-ol]	< 1000
